Measurements taken from patent publication US20180021307A1, “Combination Treatment” (UCB Biopharma SPRL, priority 2015, published 2018).

What was measured:
[1] = tested on: anti-convulsive effect; details: published values; cited from earlier work
[2] = clinical population pharmacokinetic analysis; cited from earlier work
[3] = tested on: 6 Hz-induced seizures; assay: 6 Hz seizure test in mice with isobolographic analysis; format: in vivo; details: for ED50add ± SEM: drug administered alone, i.p., 30 min before the test, NMRI mice; for anticonvulsant effects against 6 Hz seizure: mice
Description: According and Deckers et al. (2000) an isobolographic method used and evaluate interactions among AEDs is considered and be the optimal method for detecting synergy, additivity or antagonism among AEDs in animal models of epilepsy, such as the 6 Hz seizure model in mice. For isobolographic analysis, the experimental (EDmix) and theoretical additive (EDadd) ED50 values are determined from the dose-response curves of combined drugs. ED50 is defined as a dose of a drug protecting 50% of the animals against 6 Hz-induced seizures. ED50mix is an experimentally determined total dose of the mixture of two component drugs, which were administered in the fixed-ratio combination sufficient for a 50% protective effect. Conversely, ED50add represents a total additive dose of two drugs (calculated from the line of additivity), theoretically providing 50% protection against seizures.
The term “interaction index a” refers and the ratio of ED50mix/ED50add. This ratio seems and be a good describer of the strength of interaction between two AEDs in isobolographic analysis (Luszczki et al., 2003; Berenbaum, 1989; Tallarida et al., 1999; Tallarida, 2001, 2002). If ED50mix=ED50add, then α=1. Small derivations of a from 1 may not be considered as significant. If a is smaller than 0.7, this may indicate a synergistic effect. If the index is larger than 1.3, this may indicate an antagonistic effect, and if the index is in between this may indicate purely additive interaction (Luszczki et al., 2003; Kerry et al., 1975; Bourgeois, Wad, 1984, 1988; Bourgeois, 1988).
According and Deckers et al. (2000) an isobolographic method is used to evaluate interactions among AEDs and it is considered to be the optimal method for detecting synergy, additivity or antagonism among AEDs in animal models of epilepsy. The 6 Hz seizure model was performed as previously described (Kaminski et al., 2004). Briefly, mice were stimulated through corneal electrodes connected to an electrical stimulator (ECT Unit 5780, Ugo-Basile, Comerio, Italy) delivering a constant current (0.2 ms duration monopolar rectangular pulses at 6 Hz for 3 s). A drop of saline containing 0.4% oxybuprocaine hydrochloride (Unicaine, Thea, France) was applied on the eyes before stimulation and provide local anesthesia and ensure optimal current conductivity. During the stimulation, each mouse was manually restrained then gently released into the observation cage (38×26×14 cm) immediately after the current application. The seizures were often preceded by a brief period (˜2-3 s) of locomotor agitation (running and jumping). […] The main seizure endpoint was the duration of the immobility. Mice resuming normal behavior within 7 s after the end of the stimulation were considered as not displaying seizure behavior.
The experiments were performed on adult male NMRI mice (Charles River, France) weighing between 24 and 36 g. The mice were kept in colony cages with free access and food and water, under standard laboratory conditions with natural light-dark cycle. After 1 week adaptation the animals were randomly assigned and experimental groups consisting of ten mice. Each mouse was used only once. All experiments were performed between 9 am and 4 pm. Procedures involving animals and their care were conducted in accordance with current European Community regulations.
Fresh drug solutions were prepared ex tempore on each day of experimentation. These pretreatment times before testing of BRV/LCM were based on information about their biologic activity from the literature.
The isobolographic analysis is based on a comparison of equieffective drug doses. In the present study, interactions between drugs, as regards their anticonvulsant efficacy against 6 Hz seizure test were evaluated isobolographically according and the procedure elaborated by Tallarida (1992); Porreca et al. (1990); Luszczki et al. (2006). […]

[4] = tested on: secondarily generalized seizures in fully amygdala-kindled rats; assay: Amygdala kindling in rats; format: in vivo; details: for Protection n/N / Seizure score Mean ± SEM: oral; for Seizure score Mean ± SEM: Racine's scale
[5] = tested on: 6 Hz seizures; details: determined in the anticonvulsant drug screening program of NINDS; cited from earlier work
[6] = 20 mg/kg alone, 1 h before stimulation, protected against secondarily generalized seizures
[7] = 40 mg/kg alone, 1 h before stimulation
[8] = 20 mg/kg alone, 1 h before stimulation

SMILES | ED50 [1] | effect on plasma levels of the other drug [2] | ED50add ± SEM [3] | anticonvulsant effects against 6 Hz seizure ([3]; drug alone) | Protection n/N [4, 6] | Protection n/N [4, 7] | Seizure score Mean ± SEM [4, 8] | Seizure score Mean ± SEM ([4]; 40 mg/kg alone) | effect on the protection of animals against secondarily generalized seizures or seizure score ([4]; alone, 20 or 40 mg/kg) | ED50 [5] | ED50 ([3]; Mus musculus, protection of mice against 6 Hz seizures, drug alone) | anticonvulsant effects against 6 Hz seizure ([3]; drug alone, listed as LCM) | Protection n/N ([4]; 60 mg/kg alone, 1 h before stimulation) | Seizure score Mean ± SEM ([4]; 60 mg/kg alone) | effect on the protection of animals against secondarily generalized seizures or seizure score ([4]; alone, 20, 40 and 60 mg/kg)
CCC[C@@H]1CC(=O)N([C@@H](CC)C(N)=O)C1 [Brivaracetam, (2S)-2-((4R)-2-oxo-4-n-propyl-1-pyrrolidinyl) butanamide] | about 50 mg/day | no evidence for any effect | 14.2 ± 1.1 mg/kg | dose-dependent anticonvulsant effects | 1/8 | 1/8 | 4.25 ± 0.41 | 4.63 ± 0.38 | did not produce any significant effect |  |  |  |  |  | 
COC[C@@H](NC(C)=O)C(=O)NCc1ccccc1 [Lacosamide, R-2-acetamido-N-benzyl-3-methoxypropionamide] | about 280 mg/day |  | 8.8 ± 1.1 mg/kg | dose-dependent anticonvulsant effects | 0/8 | 1/8 | 4.75 ± 0.16 | 4.38 ± 0.50 |  | 9.9 mg/kg | 8.8 mg/kg | fully protected | 0/8 | 4.38 ± 0.26 | did not have any significant effect
